Patent US20250223268A1, “4-Methylsulfonylbenzamide Compound, Preparation Method, Herbicidal Composition And Use” (Jiangsu Flag Chemical Industry Co., Ltd., priority 2022, published 2025)

Key:
Format in all cases: in vivo
Leptochloa chinensis [1] = experiment: Greenhouse herbicidal activity assay, post-emergence; conditions: Post-emergence test, rate 150 g a.i./hm^2; grade by fresh weight inhibition rate
Method in brief: (§1)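 Weeds and crops grown in pots of nutrient soil in a growth chamber to the 3-6 leaf stage, then foliar-sprayed and air-dried. Fresh weight inhibition scored 14-21 days after treatment and graded A (≥80%) through E (<20%).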

Eclipta prostrata = experiment: as above; conditions: Post-emergence test, rate 150 g a.i./hm^2; grade by fresh weight inhibition rate
Method in brief: as §1

Cyperus iria = experiment: as above; conditions: Post-emergence test, rate 150 g a.i./hm^2; grade by fresh weight inhibition rate
Method in brief: as §1

[2] = test system: Oryza sativa subsp. japonica; experiment: Greenhouse herbicidal activity and crop safety comparison (Test Example 2); conditions: Rate 150 g/ha
Method in brief: (§2)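 Fresh weight inhibition, banded into grades A to E (E <20%), was rated 14-21 days after foliar spraying of 3-6 leaf plants, or 14-30 days after a soil spray applied 24 h post-sowing.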

Leptochloa chinensis [3] = experiment: as above; conditions: Rate 150 g/ha
Method in brief: as §2

Echinochloa crusgalli [4] = experiment: as above; conditions: Rate 150 g/ha
Method in brief: as §2

[5] = test system: Oryza sativa subsp. indica; experiment: as above; conditions: Rate 150 g/ha
Method in brief: as §2

Echinochloa crusgalli [6] = experiment: Greenhouse herbicidal activity assay, post-emergence; conditions: Post-emergence test, rate 150 g a.i./hm^2; grade by fresh weight inhibition rate
Method in brief: as §1

Digitaria sanguinalis = experiment: as above; conditions: Post-emergence test, rate 150 g a.i./hm^2; grade by fresh weight inhibition rate
Method in brief: as §1

Row | SMILES | Control efficacy grade, Leptochloa chinensis (Leptochloa chinensis [1]) | Control efficacy grade, Eclipta prostrata (Eclipta prostrata) | Control efficacy grade, Cyperus iria (Cyperus iria) | Oryza sativa subsp. japonica, grading of fresh weight inhibition rate (crop safety) [2] | Leptochloa chinensis, control efficacy grading (fresh weight inhibition rate) (Leptochloa chinensis [3]) | Echinochloa crusgalli, control efficacy grading (fresh weight inhibition rate) (Echinochloa crusgalli [4]) | Oryza sativa subsp. indica, grading of fresh weight inhibition rate (crop safety) [5] | Control efficacy grade, Echinochloa crusgalli (Echinochloa crusgalli [6]) | Control efficacy grade, Digitaria sanguinalis (Digitaria sanguinalis)
1 | Cc1nnc(NC(=O)c2ccc(S(C)(=O)=O)c(S(=O)(=O)Cc3ccccc3)c2Cl)o1 [Compound 3-71] | A (Fresh weight inhibition rate≥80% to 100%) | A (Fresh weight inhibition rate≥80% to 100%) | A (Fresh weight inhibition rate≥80% to 100%) | E (Fresh weight inhibition rate<20%) | A (Fresh weight inhibition rate≥80% to 100%) | C (Fresh weight inhibition rate≥40% to <60%) | E (Fresh weight inhibition rate<20%) | – | –
2 | Cc1nnc(NC(=O)c2ccc(S(C)(=O)=O)c(S(=O)(=O)C3CCCCC3)c2Cl)o1 [Compound 3-96] | A (Fresh weight inhibition rate≥80% to 100%) | A (Fresh weight inhibition rate≥80% to 100%) | A (Fresh weight inhibition rate≥80% to 100%) | E (Fresh weight inhibition rate<20%) | A (Fresh weight inhibition rate≥80% to 100%) | C (Fresh weight inhibition rate≥40% to <60%) | E (Fresh weight inhibition rate<20%) | – | –
3 | C#CCS(=O)(=O)c1c(S(C)(=O)=O)ccc(C(=O)Nc2nnc(C)o2)c1Cl [Compound 3-151] | A (Fresh weight inhibition rate≥80% to 100%) | A (Fresh weight inhibition rate≥80% to 100%) | A (Fresh weight inhibition rate≥80% to 100%) | E (Fresh weight inhibition rate<20%) | A (Fresh weight inhibition rate≥80% to 100%) | – | E (Fresh weight inhibition rate<20%) | B (Fresh weight inhibition rate≥260% to <80%) | B (Fresh weight inhibition rate≥260% to <80%)
4 | CC(C)c1nnc(NC(=O)c2ccc(S(C)(=O)=O)c(S(=O)(=O)CC3CC3)c2Cl)o1 [Compound 3-534] | B (Fresh weight inhibition rate≥260% to <80%) | A (Fresh weight inhibition rate≥80% to 100%) | A (Fresh weight inhibition rate≥80% to 100%) | E (Fresh weight inhibition rate<20%) | A (Fresh weight inhibition rate≥80% to 100%) | – | E (Fresh weight inhibition rate<20%) | B (Fresh weight inhibition rate≥260% to <80%) | B (Fresh weight inhibition rate≥260% to <80%)
5 | CS(=O)(=O)c1ccc(C(=O)Nc2nnc(C3CC3)o2)c(Cl)c1S(=O)(=O)CC1CC1 [Compound 3-650] | A (Fresh weight inhibition rate≥80% to 100%) | A (Fresh weight inhibition rate≥80% to 100%) | A (Fresh weight inhibition rate≥80% to 100%) | E (Fresh weight inhibition rate<20%) | B (Fresh weight inhibition rate≥260% to <80%) | – | E (Fresh weight inhibition rate<20%) | B (Fresh weight inhibition rate≥260% to <80%) | A (Fresh weight inhibition rate≥80% to 100%)
